Among the data in ChEMBL document CHEMBL2202954, “The effect of PLC-γ2 inhibitors on the growth of human tumour cells” (2012) are Activity values, retold here.

Each structure is given as a SMILES string.

Holding throughout (format): functional
In experiment [1] the test system is PC-3. Briefly: Cytotoxicity against human PC3 cells assessed as cellular growth at 10 uM by SRB assay.
Experiment [2] deals with MOLT-4. Nature of the experiment: Cytotoxicity against human MOLT4 cells assessed as cellular growth at 10 uM by SRB assay. (In general: The SRB assay estimates cell density from bound dye.)
The test system of experiment [3] is UACC-62. Briefly: Cytotoxicity against human UACC62 cells assessed as cellular growth at 10 uM by SRB assay.
Experiment [4] has as its system HT-29. Briefly: Cytotoxicity against human HT-29 cells assessed as cellular growth at 10 uM by SRB assay.
For experiment [5], the system named is MDA-MB-468. Briefly: Cytotoxicity against human MDA-MB-468 cells assessed as cellular growth at 10 uM by SRB assay.
Experiment [6] is described as follows: Cytotoxicity against human NCI-ADR-RES cells assessed as cellular growth at 10 uM by SRB assay.
Experiment [7] deals with RXF 393. Briefly: Cytotoxicity against human RXF393 cells assessed as cellular growth at 10 uM by SRB assay.
Experiment [8] concerns HCC 2998. Briefly: Cytotoxicity against human HCC2998 cells assessed as cellular growth at 10 uM by SRB assay.
Experiment [9] has as its system SW-620. Nature of the experiment: Cytotoxicity against human SW620 cells assessed as cellular growth at 10 uM by SRB assay.
The test system of experiment [10] is OVCAR-8. Nature of the experiment: Cytotoxicity against human OVCAR8 cells assessed as cellular growth at 10 uM by SRB assay.
Experiment [11] relates to CCRF-CEM. Nature of the experiment: Cytotoxicity against human CCRF-CEM cells assessed as cellular growth at 10 uM by SRB assay.
Experiment [12] concerns BT-549. Briefly: Cytotoxicity against human BT549 cells assessed as cellular growth at 10 uM by SRB assay.
Experiment [13] relates to TK-10. Briefly: Cytotoxicity against human TK10 cells assessed as cellular growth at 10 uM by SRB assay.
The test system of experiment [14] is OVCAR-3. Nature of the experiment: Cytotoxicity against human OVCAR3 cells assessed as cellular growth at 10 uM by SRB assay.
Experiment [15] relates to K562. Briefly: Cytotoxicity against human K562 cells assessed as cellular growth at 10 uM by SRB assay.
The subject of experiment [16] is M14. Briefly: Cytotoxicity against human M14 cells assessed as cellular growth at 10 uM by SRB assay.
Experiment [17] relates to A549. Briefly: Cytotoxicity against human A549 cells assessed as cellular growth at 10 uM by SRB assay.
For experiment [18], the system named is HL-60(TB). Briefly: Cytotoxicity against human HL-60(TB) cells assessed as cellular growth at 10 uM by SRB assay.
Experiment [19] relates to ACHN. Briefly: Cytotoxicity against human ACHN cells assessed as cellular growth at 10 uM by SRB assay.
Experiment [20] relates to MDA-MB-435. Briefly: Cytotoxicity against human MDA-MB-435 cells assessed as cellular growth at 10 uM by SRB assay.

On to `Nc1c(C(=O)NCc2ccccc2)sc2nc3c(cc12)C(=O)CCC3`, for which the Activity in [1] turned out to be 106.49%; in experiment [2], 119.87%; in experiment [3], 115.69%; in experiment [4], 116.55%; in experiment [5] it was 116.37%; in experiment [6], 100.02%. For the same molecule, the Activity in experiment [7] is recorded as 122.76%; in experiment [8], 107.63%; in [9] it was 105.63%; in [10] it was 114.43%; in experiment [11], 102.77%; in experiment [12] it was 120.38%. Moreover, the Activity was 115.8% in [13]; 115.33% in experiment [14]; 111.11% in experiment [15]; 113.61% in experiment [16]; 103.07% in [17]; 119.79% in experiment [18]. Besides, the Activity in experiment [19] is reported as 112.59%.
Regarding `O=c1/c(=C/c2ccccc2)sc2nc(-c3ccc(Cl)cc3Cl)nn12`, the Activity stood at 115.99% in [1]; 103% in experiment [3]; 120.34% in [5]; 111.31% in experiment [6]; 111.76% in [7]; 122.44% in experiment [8]. The Activity is 101.67% in [9]; 102.91% in [10]; 105.93% in [11]; 105.68% in experiment [12]; 98.86% in [13]; 105.06% in experiment [14]. The Activity was determined as 99.39% in experiment [15]; 103.86% in experiment [16]; 103.15% in [17]; 109.45% in [19]; 119.04% in experiment [20].
In the case of `O=C(NCc1cccnc1)c1sc2cc([N+](=O)[O-])ccc2c1Cl`, the Activity in [1] was 101.92%; in experiment [2], 93.36%; in experiment [3], 89.48%; in experiment [4], 106.56%; in experiment [5], 106.53%; in [6] it was 95.58%. Moreover, the Activity in experiment [7] is 111.54%; in [8], 104.9%; in experiment [9], 96.99%; in experiment [10], 96.34%; in [11], 100.08%; in [12], 97.89%. The Activity in experiment [13] was found to be 122.07%; in experiment [14] it was 100.57%; in [15], 93.09%; in experiment [16], 108.24%; in [17] it was 91.87%; in [18], 110.91%. The Activity in [19] is given as 106.03%; in experiment [20], 95.22%.
For `Cc1ccc(CNC(=O)c2[nH]c3ccccc3c2Cl)cc1`, the Activity in experiment [1] worked out at 93.19%; in experiment [2], 91.47%; in [3], 100.21%; in experiment [4], 100.16%; in experiment [5], 106.86%; in experiment [6], 92.34%. The Activity in [7] was 109.98%; in experiment [8], 101.22%; in experiment [9], 89.73%; in experiment [10] it was 99.35%; in [11], 99.93%; in experiment [12] it was 115.69%. Besides, the Activity stood at 124.52% in experiment [13]; 95.55% in experiment [14]; 100.85% in experiment [15]; 115.09% in experiment [16]; 96.66% in experiment [17]; 113.42% in [18]. The Activity in experiment [19] is recorded as 112.34%.
Regarding `Nc1c(C(=O)Nc2ccccc2)sc2nc3c(cc12)C(=O)CCC3`, the Activity in experiment [1] is on record as 21.62%; in experiment [2] it was 43.43%; in experiment [3] it was 44.06%; in experiment [4], 4.34%; in experiment [5], 4.62%; in experiment [6], -6.39%. Moreover, the Activity in experiment [7] is -9.9%; in experiment [8] it was 21.89%; in experiment [9], 27.25%; in [10], 39.92%; in experiment [11] it was 16.76%; in [12], 65.66%. For the same molecule, the Activity in experiment [13] is on record as 63.62%; in experiment [14] it was -19.35%; in experiment [15], 17.06%; in [16], 1.11%; in [17], 19.69%; in experiment [18], 19.38%. For the same molecule, the values for the Activity in experiment [19] and in experiment [20] were 49.71% and -5.95%, respectively.
On to `Cc1cc(C)c(NC(=O)c2sc3nc4c(cc3c2N)C(=O)CCC4)c(C)c1`, for which the Activity in experiment [1] is 23.46%; in [2], 43.03%; in [3] it was 23.22%; in [4] it was 0.48%; in experiment [5], -27.16%; in experiment [6] it was -8.04%. The Activity was -6.65% in experiment [7]; 30.95% in experiment [8]; 15.59% in experiment [9]; 45.64% in experiment [10]; 22.12% in experiment [11]; 56.75% in [12]. Further, the Activity in experiment [13] was 44.75%; in experiment [14], 13.17%; in [15], 19.79%; in experiment [16] it was 16.41%; in experiment [17], 23.05%; in experiment [18], 14.55%. Besides, the Activity in experiment [19] is 55.26%; in experiment [20], -34.35%.
As to `Cc1ccccc1NC(=O)c1sc2nc3c(cc2c1N)C(=O)CCC3`, the Activity is recorded as 30.33% in experiment [1]; 67.51% in experiment [2]; 36.9% in experiment [3]; 21.08% in [4]; -4.56% in experiment [5]; 22.58% in experiment [6]. For the same molecule, the Activity is -10.38% in [7]; 67% in [8]; 25.37% in experiment [9]; 78.59% in experiment [10]; 30.28% in experiment [11]; 55.62% in experiment [12]. The Activity was 81.15% in experiment [13]; 4.33% in [14]; 22.15% in experiment [15]; 41.54% in experiment [16]; 37.59% in experiment [17]; 36.05% in experiment [18]. Besides, the Activity in experiment [19] is given as 49.27%; in experiment [20], -12.89%.
Regarding `Cc1ccc(Cl)cc1NC(=O)c1sc2nc3c(cc2c1N)C(=O)CCC3`, the Activity in experiment [1] is on record as 55.81%; in [2], 84.85%; in [3] it was 53.09%; in experiment [4] it was 28.78%; in experiment [5] it was 8.44%; in experiment [6], 43.81%. For the same molecule, the Activity in [7] came out at 42.15%; in experiment [8] it was 74.86%; in experiment [9], 36.54%; in [10] it was 89.97%; in [11], 49.18%; in [12], 93.5%. Besides, the Activity came out at 96.55% in experiment [13]; 22.12% in experiment [14]; 33.61% in experiment [15]; 62.9% in experiment [16]; 53.86% in experiment [17]; 82.22% in [18]. Moreover, the Activity in experiment [19] is listed as 55.94%; in [20], -3.04%.
Consider `CC1(C)CC(=O)c2cc3c(N)c(C(=O)Nc4ccccc4Cl)sc3nc2C1`, for which the Activity in experiment [1] is given as 105.8%; in experiment [2], 104.6%; in experiment [3], 100.17%; in experiment [4] it was 105.6%; in [5] it was 110.28%; in experiment [6], 115.33%. The Activity is on record as 117.18% in experiment [7]; 107.92% in [8]; 108.49% in [9]; 109.63% in experiment [10]; 97.05% in experiment [11]; 128% in [12]. Also, the Activity is 106.14% in [13]; 121.58% in experiment [14]; 96.43% in [15]; 118.29% in experiment [16]; 102.64% in experiment [17]; 114.15% in experiment [19]. In addition, in experiment [20], the Activity was 105.18%.
As to `Nc1c(C(=O)Nc2cccc(Cl)c2)sc2nc3c(cc12)C(=O)CCC3`, the Activity is listed as 29.1% in [1]; 57.06% in experiment [2]; 43.7% in experiment [3]; 23.87% in [4]; -10.56% in [5]; 17.69% in experiment [6]. Also, the Activity in [7] amounted to 25.93%; in experiment [8], 8.27%; in experiment [9], 31.28%; in [10] it was 75.34%; in experiment [11], 13.46%; in [12], 66.38%. For the same molecule, the Activity in experiment [13] worked out at 64.95%; in experiment [14] it was 10.31%; in experiment [15], 22.78%; in [16], 26.93%; in experiment [17], 28.25%; in experiment [18], 33.11%. Further, the figures for the Activity in experiment [19] and in experiment [20] were 54.19% and -39.08%, respectively.
As for `Nc1c(C(=O)Nc2ccccc2F)sc2nc3c(cc12)C(=O)CCC3`, the Activity in experiment [1] was 23.38%; in experiment [2], 73.64%; in experiment [3] it was 23.7%; in [4] it was 12.19%; in [5], -15.24%; in [6] it was -4.39%. Further, the Activity in experiment [7] is 9.63%; in experiment [8], 43.8%; in experiment [9] it was 30%; in experiment [10], 58.62%; in [11] it was 26.78%; in experiment [12], 59.83%. The Activity in experiment [13] worked out at 59.66%; in experiment [14] it was 16.76%; in experiment [15] it was 26.33%; in experiment [16] it was 19.18%; in [17], 22.02%; in experiment [18], 3387%. Further, the figures for the Activity in experiment [19] and in [20] were 65.41% and -25.93%, respectively.
